Measurements as given in PubChem BioAssay AID504686 (National Center for Advancing Translational Sciences (NCATS), 2011).

Tested on: Caco-2 monolayer A->B permeability, LC-MS/MS, 90 min
Test: Inhibitors of Human alpha-Glucosidase: Caco-2 Cell Permeability Profiling
Conditions: hits give high values
From the text: Alpha-glucosidase is responsible for the hydrolysis of terminal, non-reducing 1,4-linked alpha-D-glucose residues, which releases alpha-D-glucose. It is a lysosomal hydrolase that is required for the degradation of a small percentage (1-3%) of cellular glycogen in humans. Deficiency of this enzyme results in glycogen-storage disease type II (GSDII), also referred to as Pompe disease, an autosomal recessive disorder. Structurally normal glycogen is accumulated in the lysosomes and cytoplasm in affected patients, primarily in muscle tissues. Excessive glycogen storage within lysosomes may interrupt normal functioning of other organelles and leads to cellular injury. In turn, this leads to enlargement and dysfunction of the entire organ involved (eg: cardiomyopathy and muscle weakness). This bioassays provides profiling data on Caco-2 cell permeability of leads compounds developed for the alpha-Glucosidase project. This in vitro model is often predictive of in vivo absorption of the compound across the intestinal lining by using a Caco2-cell line and measuring the compound's rate of transport […]. NIH Chemical Genomics Center [NCGC] NIH Molecular Libraries Probe Production Centers Network [MLPCN] […]
1. […] The T0, LY and T90, LY plates are read by FlexStation 3 at excitation of 485 nm and emission of 535 nm to determine LY permeability. […]

Papp A->B: 21.3 10^-6 cm/s
Structure (SMILES): CC(=O)c1ccc(N2CCN(S(=O)(=O)c3ccc4c(c3)CC(=O)N4)CC2)cc1
